Experimental data taken from patent EP1145714A1, “DRUGS” (Takeda Chemical Industries, Ltd., priority 1998, dated 2000).

How the values were obtained:
[1] = test system: acute and delayed vomiting induced by cisplatin in ferrets; experiment: Acute and delayed vomiting induced by cisplatin in ferrets, oral dosing once or twice daily; assay type: in vivo; conditions: cisplatin 5 mg/kg i.p.; for Duration (in hour; mean ± SD) / Latency (in hour; mean ± SD) / On day 0 (0-24 hours): frequency of retching and vomiting (mean ± SD) / On day 0 (0-24 hours): number of ferrets with vomiting/ number of tested ferrets / On days 1-2(24-48 hours): frequency of retching and vomiting (mean ± SD) / On days 1-2(24-48 hours): number of ferrets with vomiting/ number of tested ferrets / Total frequency of retching and vomiting (on days 0~2; 0-72 hours): twice daily, under fasting
Method: Male 4 to 6 ferrets (1.2 to 2.2 kg) per one group were used. Cisplatin was intraperitoneally given at 5 mg/5ml/kg. 30 minutes prior to cisplatin administration and 24 and 48 hours after cisplatin administration, predetermined doses of the compound No. 3 were orally given in case of dosing once daily. 30 minutes prior to cisplatin administration and 12, 24, 36, 48 and 60 hours after cisplatin administration, predetermined doses of the compound No. 3 were orally given in case of dosing twice daily. 30 minutes prior to the dosing of the compound No. 3, a small amount of a feed was given to the animals in any of the cases. Similarly, a predetermined volume of 0.5 % methyl cellulose solution was similarly given orally to a control animal group under no fasting. A predetermined dose of ondansetron was orally given to the animals under fasting. To a control animal group of ondansetron, a predetermined volume of physiological saline was orally given to the animals under fasting. The frequency of vomiting was counted in number, up to 72 hours after cisplatin administration.
The compound No. 3 was suspended in 0.5 % methyl cellulose solution, for oral dosing at predetermined doses at a ratio of 1 ml per 1 kg body weight. An injection of ondansetron at 0.2 w/v % concentration was orally given at a predetermined volume. Additionally, 0.5 % methyl cellulose solution was orally given at a ratio of 1 ml per 1 kg body weight, while physiological saline was orally given at a ratio of 0.5 to 1.5 ml per 1 kg body weight. The data relating to the frequency of vomiting, the time period (latency) until first vomiting and the time period from the occurrence of vomiting to the termination thereof were statistically analyzed by the Dunnett test, with reference to the difference from the control group.
The acute vomiting suppression ratio, delayed vomiting suppression ratio and total vomiting suppression ratio were calculated by the following formula. [Frequency of retching or vomiting in control] - [Frequency of retching or vomiting in animals dosed with compound No. 3] / [Frequency of retching or vomiting in control] x 100 (%) [formula]

[2] = test system: methotrexate-induced delayed vomiting in dogs; experiment: Methotrexate-induced delayed vomiting in dogs, oral dosing; assay type: in vivo, beagle dogs; conditions: methotrexate 2.5 mg/kg i.v.
Method: 3 or 4 beagle dogs (8.3 to 12.6 kg), male or female per one group were used. Methotrexate was intravenously administered at 2.5 mg/ml/kg. 8, 24 and 48 hours after methotrexate dosing, predetermined doses of the compound No. 3, ondansetron and 0.5% methyl cellulose solution were orally given. The compound No. 3 and 0.5 % methyl cellulose solution were dosed 30 minutes after a small amount of a feed was given to the animals, while ondansetron was dosed to the animals under fasting. The frequency of vomiting was counted in number, up to 72 hours after methotrexate dosing. The compound No. 3 was suspended in 0.5 % methyl cellulose solution and was then orally dosed at a ratio of 0.25 to 1 ml per 1 kg body weight. A predetermined volume of an ondansetron injection at a concentration of 0.2 w/v % was orally dosed. Additionally, 0.5 % methyl cellulose solution was orally given at a ratio of 1 ml per 1 kg body weight. The data relating to the frequency of vomiting, the latency and the time period from the occurrence of vomiting to the termination thereof were statistically analyzed by the Dunnett test, with reference to the difference from the control group.
The delayed vomiting suppression ratio and the suppression ratio of the total frequency of vomiting were calculated by the following formula.

Compound: Cc1nccn1CC1CCc2c(c3ccccc3n2C)C1=O (stereo not shown) [Ondansetron, ondansetron, reference compound]
- Acute vomiting suppression ratio (0 to 24 hours after cisplatin dosing) ([1]; 1 mg/kg p.o. twice daily): 0 % NS
- Delayed vomiting suppression ratio (24 to 72 hours after cisplatin dosing) ([1]; 1 mg/kg p.o. twice daily): 0 % NS
- Total vomiting suppression ratio (0 to 72 hours after cisplatin dosing) ([1]; 1 mg/kg p.o. twice daily): 0 % NS
- Duration (in hour; mean ± SD) ([1]; 1 mg/kg × 2 p.o.): 56.5 ± 2.6 h
- Latency (in hour; mean ± SD) ([1]; 1 mg/kg × 2 p.o.): 8.7 ± 0.9 h
- On day 0 (0-24 hours): frequency of retching and vomiting (mean ± SD) ([1]; 1 mg/kg × 2 p.o.): 70.2 ± 25.2
- On day 0 (0-24 hours): number of ferrets with vomiting/ number of tested ferrets ([1]; 1 mg/kg × 2 p.o.): 5/5
- On days 1-2(24-48 hours): frequency of retching and vomiting (mean ± SD) ([1]; 1 mg/kg × 2 p.o.): 327.4 ± 88.8
- On days 1-2(24-48 hours): number of ferrets with vomiting/ number of tested ferrets ([1]; 1 mg/kg × 2 p.o.): 5/5
- Total frequency of retching and vomiting (on days 0~2; 0-72 hours) ([1]; 1 mg/kg × 2 p.o.): 397.6 ± 72.0
- Acute vomiting suppression ratio (0 to 24 hours after cisplatin dosing) ([1]; 3 mg/kg p.o. twice daily): 58 % NS
- Delayed vomiting suppression ratio (24 to 72 hours after cisplatin dosing) ([1]; 3 mg/kg p.o. twice daily): 32 % NS
- Total vomiting suppression ratio (0 to 72 hours after cisplatin dosing) ([1]; 3 mg/kg p.o. twice daily): 36 % NS
- Duration (in hour; mean ± SD) ([1]; 3 mg/kg × 2 p.o.): 44.2 ± 8.4 h
- Latency (in hour; mean ± SD) ([1]; 3 mg/kg × 2 p.o.): 15.7 ± 5.6 h
- On day 0 (0-24 hours): frequency of retching and vomiting (mean ± SD) ([1]; 3 mg/kg × 2 p.o.): 27.8 ± 13.1
- On day 0 (0-24 hours): number of ferrets with vomiting/ number of tested ferrets ([1]; 3 mg/kg × 2 p.o.): 4/6
- On days 1-2(24-48 hours): frequency of retching and vomiting (mean ± SD) ([1]; 3 mg/kg × 2 p.o.): 221.7 ± 62.9
- On days 1-2(24-48 hours): number of ferrets with vomiting/ number of tested ferrets ([1]; 3 mg/kg × 2 p.o.): 6/6
- Total frequency of retching and vomiting (on days 0~2; 0-72 hours) ([1]; 3 mg/kg × 2 p.o.): 249.5 ± 74.2
- Delayed vomiting suppression ratio (24 to 72 hours after MIX dosing) ([2]; 10 mg/kg p.o. once daily): 21 % NS
- Suppression ratio of total frequency of vomiting (0 to 72 hours after MTX dosing) ([2]; 10 mg/kg p.o. once daily): 24 % NS
- Duration (in hour; mean ± SD) ([2]; 10 mg/kg p.o.): 27.8 ± 2.7 h
- Frequency of vomiting (mean ± SD), Day 0 (0-24 hours) ([2]; 10 mg/kg p.o.): 0 b
- Frequency of vomiting (mean ± SD), Days 1 + 2 (24 - 72 hours) ([2]; 10 mg/kg p.o.): 9.3 ± 2.3
- Latency (in hour; mean ± SD) ([2]; 10 mg/kg p.o.): 28.6 ± 3.9 h
- Frequency of vomiting (mean ± SD), Total frequency ([2]; 10 mg/kg p.o., 72 hours): 9.3 ± 2.3
- Number of dogs with vomiting/number of tested dogs ([2]; 10 mg/kg p.o., 72 hours): 3/3
